Earlier results, collected in patent US11725025B2, “Progesterone phosphate analogs and uses related thereto” (EMORY UNIVERSITY, priority 2013, dated 2023).

How the values were obtained:
[1] = test system: moderate to severe TBI patients; conditions: 3 days of intravenous progesterone treatment; 100 moderate to severe TBI patients

CC(=O)[C@H]1CC[C@H]2[C@@H]3CCC4=CC(=O)CC[C@]4(C)[C@H]3CC[C@]12C [progesterone]
functional outcomes at 30 days post-injury [1]: significantly improved | reduction of mortality [1]: over 60% | solubility in aqueous-based formulations: insoluble
